# Test results as given in article PMC11359809, “Probing the molecular basis for signal transduction through the Zinc-Activated Channel (ZAC)” (Biochemical pharmacology, 2021).
# Residue numbers refer to the chain shown, from its start. Values joined by “and” are separate entries in the source; they are usually repeats but may differ in a detail not shown here. Equal entries are not always repeated.
# Assays:
# ZAC^H79A/H120F = target: T1, ZAC^H79A/H120F (Homo sapiens, UniProt Q401N2, A152T/H103A/H144F); assay: TEVC in oocytes, ZAC H79A/H120F mutant; type: cell-based; settings: parallel recordings, same oocyte batches
# T1 construct: expressed in transfected cells; host or cells: Xenopus oocytes (cRNA injection, pUNIV vector)
# Experimental: (§1) The recordings were performed at room temperature.
# (§2) Analysis of the data from the TEVC recordings were performed using Clampfit software version 10.5 (Molecular Devices, Crawley, UK) and GraphPad Prism version 7.0c (GraphPad Software, La Jolla, CA). Unless otherwise stated, the inward currents induced by agonists in oocytes were normalized to the maximal response elicited by a specific agonist (agonist Imax) on each oocyte. Concentration-response and concentration-inhibition curves were fitted in GraphPad Prism by nonlinear regression using the equation for sigmoidal dose-response with variable slope. Each data point represents the mean ± S.E.M. value of recordings performed on at least five oocytes in total from at least two different batches. […] The null hypothesis was rejected at P < 0.05, and the differences between the means were analyzed by Tukey’s multiple comparisons test.
# (§3) The putative involvement of candidate residues in Clusters 1, 2, 3 and 4 in Zn^2+ binding to ZAC was investigated in by an elaborate alanine mutagenesis scanning. […] The determined IpH 4.0 value was used in part as a control and in part to enable the distinction of ZAC mutants non-responsive to Zn^2+ due to elimination of their ability to bind the metal ion from those where the mutation had eliminated cell surface expression and/or disrupted overall functionality of the receptor complex. […]
# ZAC/m5-HT3A-II = assay: TEVC in oocytes expressing ZAC/m5-HT3A-II chimera; type: cell-based, mouse/human; settings: Zn^2+ 10 mM; H^+ pH 4.0; data not shown
# Experimental: as §1
# [1] = target: T2, ZAC^E136A/H139A/D143A/H144A (Homo sapiens, UniProt Q401N2, A152T/D167A/E160A/H163A/H168A); assay: TEVC in oocytes, Cluster 2 quadruple mutant; type: cell-based; settings: Zn^2+ 10 mM; H^+ pH 4.0; data not shown
# T2 construct: expressed in transfected cells; host or cells: Xenopus oocytes injected with cRNA (pUNIV vector)
# Experimental: as §1, §2, §3
# ZAC^H166A = target: T3, ZAC^H166A (Homo sapiens, UniProt Q401N2, A152T/H190A); assay: TEVC in oocytes, ZAC H166A mutant; type: cell-based
# T3 construct: expressed in transfected cells; host or cells: Xenopus oocytes injected with cRNA (pUNIV vector)
# Experimental: as §1, §2, §3
# ZAC^FPM/hα1-Gly = assay: TEVC in oocytes, Cys-loop modified chimera ZAC^FPM/hα1-Gly; type: cell-based, human; settings: data not shown
# Experimental: as §1
# To probe the effects of exchanges of regions involved in the ECD/TMD cross-talk between the two CLRs fused in a chimera on its functionality, we constructed 12 additional chimeras, three for each of the four original chimeras (Fig. 1A). Inspired by the similar modifications that have been introduced in a functional GLIC/hα1-Gly chimera, we swapped one or both of two specific regions: the three-residue FPX (Phe-Pro-X) motif in the Cys-loop of the ECD (FPR, FPF and […] in ZAC, m5-HT3A and hα1 GlyR, respectively), which is known to protude into proximity of the M2-M3 linker during the ECD/TMD cross-talk, and the extracellular C-terminus of the TMD, which differs substantially in both amino acid sequence and length between ZAC and the two classical CLRs combined with it in the chimeras (Fig. 4B). […] In light of this, it was not surprising that the four chimeras comprising exchanges of both the FPX motif and the C-terminus also were non-functional (data not shown).
# ZAC^L9′T = target: T4, ZAC^L9′T (Homo sapiens, UniProt Q401N2, A152T/L270T); assay: TEVC in oocytes, ZAC L9′T mutant; type: cell-based; settings: agonist; n = 6
# T4 construct: expressed in transfected cells; host or cells: Xenopus oocytes (cRNA injection, pUNIV vector)
# T4 sequence (Q401N2 26-412 A152T/L270T): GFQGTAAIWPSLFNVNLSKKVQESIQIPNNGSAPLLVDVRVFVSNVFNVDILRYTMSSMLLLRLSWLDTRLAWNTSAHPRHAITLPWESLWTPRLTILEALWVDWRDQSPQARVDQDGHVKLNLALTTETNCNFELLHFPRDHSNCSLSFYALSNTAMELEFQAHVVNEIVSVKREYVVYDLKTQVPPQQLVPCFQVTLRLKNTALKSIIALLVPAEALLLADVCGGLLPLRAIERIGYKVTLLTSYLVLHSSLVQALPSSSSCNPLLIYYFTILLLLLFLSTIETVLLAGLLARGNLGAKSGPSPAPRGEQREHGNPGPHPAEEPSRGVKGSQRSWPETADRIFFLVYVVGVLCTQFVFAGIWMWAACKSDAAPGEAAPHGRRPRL
# Experimental: as §1
# (§4) Analysis of the data from the TEVC recordings were performed using Clampfit software version 10.5 (Molecular Devices, Crawley, UK) and GraphPad Prism version 7.0c (GraphPad Software, La Jolla, CA). Unless otherwise stated, the inward currents induced by agonists in oocytes were normalized to the maximal response elicited by a specific agonist (agonist Imax) on each oocyte. Concentration-response and concentration-inhibition curves were fitted in GraphPad Prism by nonlinear regression using the equation for sigmoidal dose-response with variable slope. Each data point represents the mean ± S.E.M. value of recordings performed on at least five oocytes in total from at least two different batches. For the data where statistical analysis was performed, a one-way ANOVA was used. The null hypothesis was rejected at P < 0.05, and the differences between the means were analyzed by Tukey’s multiple comparisons test.
# WT ZAC = target: T5, WT ZAC (Homo sapiens, UniProt Q401N2, A152T); assay: TEVC in Xenopus oocytes expressing WT ZAC; type: cell-based
# T5 construct: expressed in transfected cells; host or cells: Xenopus oocytes injected with cRNA (pUNIV vector)
# T5 sequence (Q401N2 26-412 A152T): T4 sequence (Q401N2 26-412 A152T/L270T) with T245L
# Experimental: as §1, §4
# [2] = agonist, oocytes of the Cluster 3 recordings, n = 12
# [3] = agonist, parallel recordings with Cluster 4 mutant, n = 5
# [4] = agonist, section 3.1 recordings, n = 8
# [5] = sustained (4 min) application of 10 mM Zn^2+
# T2 sequence (Q401N2 26-412 A152T/E160A/H163A/D167A/H168A): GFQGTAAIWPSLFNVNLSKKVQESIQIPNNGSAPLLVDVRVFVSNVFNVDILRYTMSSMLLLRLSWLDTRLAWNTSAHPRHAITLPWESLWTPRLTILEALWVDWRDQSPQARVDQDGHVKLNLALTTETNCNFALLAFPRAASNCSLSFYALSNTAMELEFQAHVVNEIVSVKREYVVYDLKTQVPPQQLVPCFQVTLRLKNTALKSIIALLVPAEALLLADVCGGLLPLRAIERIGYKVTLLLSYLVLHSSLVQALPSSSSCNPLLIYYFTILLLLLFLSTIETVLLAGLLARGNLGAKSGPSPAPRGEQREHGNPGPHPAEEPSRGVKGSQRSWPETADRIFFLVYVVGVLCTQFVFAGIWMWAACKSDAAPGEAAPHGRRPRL
# T3 sequence (Q401N2 26-412 A152T/H190A): as the sequence (Q401N2 26-412 A152T/E160A/H163A/D167A/H168A) above, with A135E, A138H, A142D, A143H, H165A counted along it
# T1 sequence (Q401N2 26-412 H103A/H144F/A152T): as the sequence (Q401N2 26-412 A152T/E160A/H163A/D167A/H168A) above, with H78A, H119F, A135E, A138H, A142D, A143H counted along it
structure (smiles),measurement,setting,value
"[Cl-].[Cl-].[Zn+2] [Zn^2+, ZnCl2]",ability to elicit ZAC signalling compared to WT ZAC,ZAC^H79A/H120F,did not appear to impair
same,agonist-evoked current,ZAC/m5-HT3A-II,did not evoke significant currents
same,agonist responsiveness,[1],non-responsive
same,agonist properties compared to WT ZAC,ZAC^H166A,WT-like agonist properties
same,concentration-response relationship compared to ZAC/hα1-Gly,ZAC^FPM/hα1-Gly,not significantly different
same,EC50,ZAC^L9′T,66 µM
same,nH ± S.E.M. (Hill slope),ZAC^L9′T,0.7 ± 0.4
same,pEC50 ± S.E.M.,ZAC^L9′T,4.18 ± 0.34
same,Imax (current amplitude evoked by saturating agonist),"WT ZAC; 10 mM Zn^2+, mean ± S.E.M., n = 19",0.58 ± 0.10 μA
same,EC50,"WT ZAC; agonist, a couple of oocyte batches with 5–10-fold higher potency (Cluster 1 double/triple mutant experiments)",~100 µM
same,nH ± S.E.M. (Hill slope),"WT ZAC; agonist, n = 8",1.5 ± 0.2
same,EC50,"WT ZAC; agonist, normal potency in the vast majority of oocyte batches in this work and in two other studies",500 to 1000 µM
same,EC50,WT ZAC; [2],98 µM
same,pEC50 ± S.E.M.,WT ZAC; [2],4.01 ± 0.03
same,EC50,WT ZAC; [3],310 µM
same,pEC50 ± S.E.M.,WT ZAC; [3],3.51 ± 0.05
same,EC50,WT ZAC; [4],500 µM
same,pEC50 ± S.E.M.,WT ZAC; [4],3.30 ± 0.04
same,"Iresidual, 4 min",WT ZAC; [5],21 % of Ipeak and 21 ± 3 % of Ipeak
same,Δtstart-to-peak,WT ZAC; [5],4.8 ± 0.5 s
